“Also recorded” adds a separate entry of the source.
Experiments:
[1] = system: BxPC3 cells; experiment: Flow cytometry cell cycle analysis; type: cell-based, human; settings: BxPC3, 48 h, micromolar-to-submicromolar concentrations; dinitrate salt
Description: BxPC3 cells were treated with P1A1@MSNLP-COOH-LIP10, P1A1, or MSNLP-COOH-LIP10 for 48 h at the indicated concentrations. Cells were gently trypsinized, washed in PBS, fixed in ice-cold EtOH:PBS (1:1) at equivalent cell concentrations, and stored at −20° C. Cells were washed with PBS, stained using FxCycle PI/RNase staining solution (Molecular Probes, Eugene, Oreg.) and assessed by flow cytometry using an Accuri C6 (BD Biosciences, San Jose, Calif.). Data was analyzed using Modfit software v3.3.

[2] = system: BxPC3 pancreatic cancer cells; experiment: Confocal fluorescence microscopy, uptake and subcellular distribution; type: cell-based, human; settings: BxPC3, 5 μM P1A1 or equivalent, 1 h and 12 h
Description: BxPC3 cells were seeded onto chamber slides (Nunc, Rochester, N.Y.) and allowed to attach for 48 h. Cells were then treated with 5 μM P1A1, P1A1@MSNLP-COOH-LIP10 at an equivalent concentration of drug, or vehicle. The medium was aspirated and cells were co-stained by incubating with 75 nM Lysotracker Red in complete medium for 1 h. Cells were washed 3× with PBS and fixed in 4% formaldehyde/PBS for 15 min. After another three PBS washes, cover slips were mounted onto 4-well chamber slides using vectashield HardSet mounting medium (Vector Labs, Burlingame, Calif.) and stored at 4° C. until ready to use. Images were collected using a Zeiss LSM 710 confocal microscope (Carl Zeiss MicroImaging, Thornwood, N.Y.) using a 63× (PLAN Oil APO, 1.4 NA) objective lens. All image channels were acquired in a sequential mode to minimize excitation cross talk and emission bleed-through. […] For comparative fluorescence intensity analysis, great care was taken to equalize excitation power, pinhole settings, PMT gain, and offset values across and within imaging sessions for each respective channel. […] Where necessary, post-acquisition contrast adjustments were applied to the entire image, and processing was identical in all fluorescence channels. […]

Substance: [PtCl(en)(N-[acridin-9-ylaminoethyl]-N-methylpropionamidine)] dinitrate salt [Compound P1A1]
- effect on cell cycle distribution [1]: robust S phase arrest; also recorded: sub-G1 population at the highest dose
- uptake and subcellular distribution [2]: accumulates rapidly (about 1 h) in cells to produce blue fluorescence associated with the entire cytoplasm and, to a lesser extent, the nuclear region

— patent US20190290685A1, “COMPOSITIONS AND ASSOCIATED METHODS OF MESOPOROUS NANOPARTICLES COMPRISING PLATINUM-ACRIDINE MOLECULES” (Wake Forest University, priority 2016, published 2019)
